Experiments:
DENV-2 NS5 / IMPα/β = DENV-2 NS5 / IMPα/β (Dengue virus type 2, UniProt P14340); experiment: AlphaScreen binding of His6-NS5 to IMPα/β heterodimer; conditions: 3 nM His6-NS5, 10 nM IMPα/β, increasing concentrations of compound
Method: AlphaScreen®, a luminescent bead-based assay that measures direct protein-protein interactions, was used to examine the binding of 3 nM His6-NS5 to 10 nM IMPα/β (IMPα/β heterodimer containing biotinylated IMPβ1) in the presence of increasing concentrations of 4-HPR, 4-MPR or ATRA (FIG. 1A), or 4-oxo-4-HPR, 4-HPR or 4-MPR (FIG. 1B). Data are the mean±standard deviation (SD) of triplicate wells from a single typical experiment.
To investigate the specificity of 4-HPR inhibition of NS5-importin association, the binding of 30 nM His6-NS5 to 10 nM IMPα/β, (IMPα/β heterodimer containing biotinylated IMPβ1), 3 nM IMPαΔIBB (biotinylated IMPa with the IMPβ-binding domain removed), or 3 nM biotinylated IMPβ1, in the presence of increasing concentrations of 4-HPR, was investigated.

DENV-3 = experiment: Cell-based flavivirus immunodetection assay in BHK-21 cells, DENV-3; conditions: 48 h p.i.
Method: (§1) To investigate this, BHK-21 cells were infected with DENV serotypes 1, 2, 3 or 4 (MOI of 0.3) for 1 h in the presence of 4-HPR or 4-MPR (concentrations as indicated in FIG. 6A). Virus inoculum was removed and fresh media containing the indicated compounds was added. Virus infection rates were determined 48 h p.i. using a cell-based flavivirus immunodetection assay. Briefly, cells were fixed and stained for DENV structural protein, E, followed by addition of Alexa Fluor 488 anti-mouse IgG. Viral antigen quantification was performed using Imagexpress. Data shown are representative of a single experiment

DENV-4 = experiment: Cell-based flavivirus immunodetection assay in BHK-21 cells, DENV-4; conditions: BHK-21 cells, 48 h p.i.
Method: as §1

DENV-2 [1] = experiment: Delayed addition in DENV-2 infected Huh-7 cells, NS1 RNA by qPCR; assay type: cell-based
Method: To gain further insight into the mode of action of 4-HPR, the human liver carcinoma cell line, Huh-7 cells were infected with DENV-2 (MOI of 1), followed by delayed addition of drug diluent DMSO (DENV only), 7.5 μM 4-HPR, 7.5 μM 4-MPR or 10 μM NITD008 (a previously described adenosine nucleoside inhibitor), 12 h post infection. Cells were lysed at the indicated times, RNA was extracted by Trizol and analysed by qPCR with fold change in expression of NS1 calculated relative to the untreated control (FIG. 5B). Concurrently, culture medium was collected and viral titres determined by plaque assay (FIG. 5C).

CHIKV = CHIKV infection of HEK293T cells, plaque assay; assay type: cell-based; conditions: 5 μM, 24 h p.i.
Method: HEK293T cells were treated with 5 μM 4-HPR or 4-MPR for 2 h, then infected with CHIKV for 1 h (MOI of 0.1) in the absence of compound (FIG. 9A). Alternatively, HEK293T cells were infected with CHIKV for 1 h (MOI of 0.1) without pre-treating the cells with compound (FIG. 9B). In both instances, virus inoculums were removed, then fresh medium containing the indicated compound was added (FIG. 9A and FIG. 9B). Infectious virus titres were determined by plaque assay 24 h p.i. Data are the mean+standard deviation of one experiment performed in duplicate wells, represented as plaque forming units per ml (PFU/ml).

[2] = test system: West Nile virus, Kunjin strain (WNVKUN); experiment: West Nile virus (Kunjin strain) infection of Vero cells, plaque assay; assay type: cell-based; conditions: Vero cells
Method: FIG. 9C. Viral titre from a plaque assay conducted from Vero cells infected with West Nile virus (Kunjin strain; WNVKUN) after treatment with 10 μM 4-HPR for 4 h.

DENV-2 [3] = experiment: Cell-based flavivirus immunodetection assay in BHK-21 cells, DENV-2; conditions: BHK-21 cells, 48 h p.i.
Method: as §1

DENV-1 [4] = experiment: Cell-based flavivirus immunodetection assay in BHK-21 cells, DENV-1; conditions: 48 h p.i.
Method: as §1

DENV-1 [5] = experiment: ADE-mediated DENV-1 infection of human PBMCs, plaque assay; assay type: cell-based; conditions: ADE-mediated DENV-1 infection, 48 h
Method: The antiviral activity of 4-HPR was investigated in the more physiologically relevant human system of peripheral blood mononuclear cells (PBMCs), a major target of DENV infection in humans.
PBMCs were prepared from a healthy donor buffy coat using a Ficoll gradient, prior to ADE-mediated DENV-1 infection (MOI of 10) in the presence of increasing concentrations of 4-HPR or 4-MPR, and infectious virus titres determined by plaque assay 48 h later.

DENV-2 [6] = experiment: DENV-2 infectivity assay in Vero cells, viral RNA copies in culture medium by RT-PCR; assay type: cell-based; conditions: MOI of 1; for effect on DENV infection (viral RNA copies at 24 h p.i.): 10 μM compound
Method: To test the specificity of 4-HPR and 4-oxo-4-HPR for anti-DENV activity Vero cells were infected with DENV-2 with a multiplicity of infection (MOI) of 1, in the presence of drug diluent (untreated) or the indicated compounds (10 μM in FIG. 3A, or 10 μM or 5 μM as indicated in FIG. 3B) for 2 h, followed by removal of the virus/drug inoculums, and addition of fresh 2% FCS maintenance medium. At 24 h post infection (p.i.) the culture medium was collected and the viral RNA extracted using QIAamp viral RNA mini kit (Qiagen). Absolute RNA copies present in each sample were determined by Taqman One Step RT-PCR (Applied Biosystems), as an estimate of virus titre by extrapolation from a standard curve generated from in vitro transcribed DENV RNA. Data shown are the mean+standard error of the mean (SEM) for 3 (FIG. 3A) or 2 (FIG. 3B) independent experiments. Statistical analysis (Student's ttest) was performed using GraphPad Prism software.

SMILES: COc1ccc(NC(=O)/C=C(C)/C=C/C=C(C)/C=C/C2=C(C)CCCC2(C)C)cc1 [4-MPR, N-(4-methoxyphenyl) retinamide]
- block of association of DENV-2 NS5 with IMPα/β (DENV-2 NS5 / IMPα/β): neither ATRA nor 4-MPR were able to disrupt association
- effect on replication of DENV serotype 3 (DENV-3): did not have any effect
- effect on replication of DENV serotype 4 (DENV-4): did not have any effect
- viral RNA levels (NS1 qPCR) (DENV-2 [1]; 7.5 μM added 12 h p.i., up to 60 h p.i.): viral RNA levels increased steadily until 60 h p.i.
- reduction of infectious CHIKV produced (CHIKV; HEK293T cells pre-treated 2 h with compound): did not reduce CHIKV titres
- reduction of infectious CHIKV produced (CHIKV; HEK293T cells, compound added after infection): did not reduce CHIKV titres
- antiviral activity against WNVKUN [2]: no antiviral activity
- effect on replication of DENV serotype 2 (DENV-2 [3]): did not have any effect
- effect on replication of DENV serotype 1 (DENV-1 [4]): did not have any effect
- reduction of infectious virus titre in infected PBMCs (DENV-1 [5]): no reduction
- effect on DENV infection (viral RNA copies at 24 h p.i.) (DENV-2 [6]): no effect on DENV infection

SMILES: CC1=C(/C=C/C(C)=C/C=C/C(C)=C/C(=O)Nc2ccc(O)cc2)C(C)(C)CCC1=O [4-oxo-4-HPR, N-(4-hydroxyphenyl)-4-oxoretinamide]
- block of association of DENV-2 NS5 with IMPα/β (DENV-2 NS5 / IMPα/β): able to block association
- reduction in viral RNA copies at 24 h p.i. (DENV-2 [6]; 5 μM compound for 2 h during infection): 1 log

SMILES: CC1=C(/C=C/C(C)=C/C=C/C(C)=C\C(=O)O)C(C)(C)CCC1 [13-cis retinoic acid]
- effect on DENV infection (viral RNA copies at 24 h p.i.) (DENV-2 [6]): no effect on DENV infection

SMILES: CC1=C(/C=C/C(C)=C/C=C/C(C)=C/C(=O)O)C(C)(C)CCC1 [ATRA, all-trans retinoic acid]
- block of association of DENV-2 NS5 with IMPα/β (DENV-2 NS5 / IMPα/β): neither ATRA nor 4-MPR were able to disrupt association
- effect on DENV infection (viral RNA copies at 24 h p.i.) (DENV-2 [6]): no effect on DENV infection

SMILES: C#C[C@@]1(O)[C@H](O)[C@@H](CO)O[C@H]1n1ccc2c(N)ncnc21 [NITD008]
- viral RNA levels (NS1 qPCR) (DENV-2 [1]; 10 μM added 12 h p.i.): reduced RNA levels

SMILES: C/C(=C\c1ccc(C(=O)O)cc1)c1ccc2c(c1)C(C)(C)CCC2(C)C [arotinoid acid]
- effect on DENV infection (viral RNA copies at 24 h p.i.) (DENV-2 [6]): no effect on DENV infection

Reference: patent US11752116B2, “Method of viral inhibition” (priority 2013, dated 2023)
